Source: patent publication US20250346605A1, “NEW DERIVATIVES FOR TREATING TRPM3 MEDIATED DISORDERS” (Katholieke Universiteit Leuven, priority 2022, published 2025)

Each compound was assayed against T1, mouse TRPM3α2 (mTRPM3) ion channel (Mus musculus, UniProt J9SQF3) (assay: TRPM3 ion channel driven Ca2+ uptake (Fluo-4 AM assay), PS-stimulated overexpressing HEK293 cells). Settings: flip-in HEK293 overexpressing TRPM3, stimulated with Pregnenolone sulfate (PS) 50 μM, activity ranges A, B, C.
T1 construct: expressed in transfected cells; host or cells: Flp-In HEK293
Assay type: cell-based
Experimental: In order to monitor the inhibition of the mouse TRPM3α2 (mTRPM3) ion channel by the compounds of the invention, a cellular system making use of an mTRPM3alpha2 or hTRPM3 overexpressing cell line (flip-in HEK293) was used. The TRPM3 channel was stimulated/opened with Pregnenolone sulfate (PS) (50 μM) which results in Ca^2+ influx.
For mTRPM3, the intracellular Ca^2+ was measured with a Calcium responsive dye, Fluor-4 AMV ester (Invitrogen). Cells were cultured until a confluence of 80-90%, washed with Versene (Invitrogen) and detached from the surface by a short incubation with 0.05% Trypsin (Invitrogen). The trypsination process was stopped by the addition of complete cell culture medium (DMEM, glutamax, 10% FCS, NEAA, Pen-Strep). Cells were collected and resuspended in Krebs buffer without Calcium at RT.
Prior the cell seeding (±2000 cells/well into a black, 384 well plate (Greiner)) the diluted compound was added in the assay plate, together with the PS dissolved in Krebs buffer containing Calcium. […] Directly after cell addition the plates were read on an Envision fluorescence reader (Perkin Elmer) by an Excitation of 485 nm and emission at 535 nm.
Channel inhibition was calculated compared to a non-PS stimulated control versus a condition stimulated with PS (50 μM) with vehicle. The ability of the compounds of the invention to inhibit this activity was determined as: Percentage inhibition=[1-((RFU determined for sample with test compound present−RFU determined for sample with positive control inhibitor) divided by (RFU determined in the presence of vehicle−RFU determined for sample with positive control inhibitor))]*100.
The activities of the Example compounds tested are depicted in the table below. The activity ranges A, B and C refer to IC50 values in the Fluo-4 AM assay as follows: “A”: IC50<1 μM; “B”: 1 μM≤IC50≤20 μM and “C”: IC50>20 μM

T1 sequence (J9SQF3 1-1709 isoform J9SQF3-12): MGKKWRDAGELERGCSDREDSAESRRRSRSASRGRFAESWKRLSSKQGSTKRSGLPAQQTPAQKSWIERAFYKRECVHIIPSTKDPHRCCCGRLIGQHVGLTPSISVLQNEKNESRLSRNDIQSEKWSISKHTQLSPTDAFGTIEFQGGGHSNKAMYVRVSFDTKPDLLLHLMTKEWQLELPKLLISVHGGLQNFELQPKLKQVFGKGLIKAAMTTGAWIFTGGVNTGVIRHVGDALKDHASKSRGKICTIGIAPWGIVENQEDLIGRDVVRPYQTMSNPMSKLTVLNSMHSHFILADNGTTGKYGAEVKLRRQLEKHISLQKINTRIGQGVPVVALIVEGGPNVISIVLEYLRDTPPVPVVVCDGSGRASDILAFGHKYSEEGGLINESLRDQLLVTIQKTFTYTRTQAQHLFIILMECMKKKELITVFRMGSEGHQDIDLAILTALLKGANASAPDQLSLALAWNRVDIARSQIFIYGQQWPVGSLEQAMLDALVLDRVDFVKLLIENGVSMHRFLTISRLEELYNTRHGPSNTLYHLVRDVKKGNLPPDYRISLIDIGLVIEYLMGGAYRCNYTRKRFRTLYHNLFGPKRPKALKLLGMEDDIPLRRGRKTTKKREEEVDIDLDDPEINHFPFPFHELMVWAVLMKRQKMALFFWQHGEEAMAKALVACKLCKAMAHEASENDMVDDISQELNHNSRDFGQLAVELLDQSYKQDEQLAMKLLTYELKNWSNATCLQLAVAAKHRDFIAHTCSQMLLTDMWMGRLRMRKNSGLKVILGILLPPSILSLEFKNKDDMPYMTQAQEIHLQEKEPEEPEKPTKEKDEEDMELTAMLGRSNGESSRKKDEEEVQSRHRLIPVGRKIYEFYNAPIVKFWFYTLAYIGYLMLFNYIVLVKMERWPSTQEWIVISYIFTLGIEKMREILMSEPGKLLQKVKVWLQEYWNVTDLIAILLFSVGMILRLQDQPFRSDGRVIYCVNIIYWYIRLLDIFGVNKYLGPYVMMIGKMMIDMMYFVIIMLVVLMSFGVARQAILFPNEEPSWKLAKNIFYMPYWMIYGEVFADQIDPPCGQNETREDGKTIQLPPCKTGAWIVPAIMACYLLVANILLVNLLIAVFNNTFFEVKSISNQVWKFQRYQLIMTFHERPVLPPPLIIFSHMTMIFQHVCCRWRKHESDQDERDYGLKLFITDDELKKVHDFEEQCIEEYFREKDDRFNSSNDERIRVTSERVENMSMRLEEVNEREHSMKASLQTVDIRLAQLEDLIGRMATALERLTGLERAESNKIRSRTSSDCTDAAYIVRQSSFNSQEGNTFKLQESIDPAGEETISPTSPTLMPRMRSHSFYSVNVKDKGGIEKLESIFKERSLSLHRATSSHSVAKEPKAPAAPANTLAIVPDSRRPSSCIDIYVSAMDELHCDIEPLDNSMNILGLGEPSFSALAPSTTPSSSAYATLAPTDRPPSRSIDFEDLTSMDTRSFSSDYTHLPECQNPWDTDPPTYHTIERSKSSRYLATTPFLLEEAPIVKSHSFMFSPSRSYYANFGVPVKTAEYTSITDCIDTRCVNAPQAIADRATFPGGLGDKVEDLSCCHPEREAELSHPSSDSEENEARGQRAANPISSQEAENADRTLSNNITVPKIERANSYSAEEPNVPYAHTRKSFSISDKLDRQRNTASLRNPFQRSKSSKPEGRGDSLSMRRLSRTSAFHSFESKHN

| SMILES | IC50 |
| --- | --- |
| Cc1oc2cnc(OCc3ccccc3F)cc2c1C(=O)N[C@H](C(N)=O)[C@@H](C)O [Cpd 002, (2S,3R)-2-({5-[(2-fluorophenyl)methoxy]-2-methylfuro[2,3-c]pyridin-3-yl}formamido)-3-hydroxybutanamide] | < 1 µM |
| Cc1ncsc1COc1cc2c(C(=O)NC(CO)C(N)=O)c(C)oc2cn1 (single isomer, unassigned) [Cpd 013-En2, 3-hydroxy-2-({2-methyl-5-[(4-methyl-1,3-thiazol-5-yl)methoxy]furo[2,3-c]pyridin-3-yl}formamido)propanamide] | < 1 µM |
| Cc1oc2cnc(OCc3ccccc3)cc2c1C(=O)NC1CNCC1(F)F (single isomer, unassigned) [Cpd 015-En2, 5-(benzyloxy)-N-(4,4-difluoropyrrolidin-3-yl)-2-methylfuro[2,3-c]pyridine-3-carboxamide] | < 1 µM |
| Cc1oc2cnc(OCc3ccccn3)cc2c1C(=O)NC(C)C(N)=O (single isomer, unassigned) [Cpd 006 _ En2, 2-({2-methyl-5-[(pyridin-2-yl)methoxy]furo[2,3-c]pyridin-3-yl}formamido)propanamide] | 1 to 20 µM |
| Cc1oc2cnc(OCc3ccccc3)cc2c1C(=O)NC1CNCC1(F)F (single isomer, unassigned) [Cpd 015-En1, 5-(benzyloxy)-N-(4,4-difluoropyrrolidin-3-yl)-2-methylfuro[2,3-c]pyridine-3-carboxamide] | > 20 µM |
| Cc1oc2cnc(OCc3ccccn3)cc2c1C(=O)NC(C)C(N)=O (single isomer, unassigned) [Cpd 006 _ En1, 2-({2-methyl-5-[(pyridin-2-yl)methoxy]furo[2,3-c]pyridin-3-yl}formamido)propanamide] | 1 to 20 µM |
| Cc1oc2cnc(OCc3ccccc3F)cc2c1C(=O)NC(CO)C(N)=O (single isomer, unassigned) [Cpd 008-En2, 2-({5-[(2-fluorophenyl)methoxy]-2-methylfuro[2,3-c]pyridin-3-yl}formamido)-3-hydroxypropanamide] | < 1 µM |
| Cc1oc2cnc(OCc3ccccc3F)cc2c1C(=O)NC1CCN(CCO)C1=O (single isomer, unassigned) [Cpd 017-En2, 5-[(2-fluorophenyl)methoxy]-N-[1-(2-hydroxyethyl)-2-oxopyrrolidin-3-yl]-2-methylfuro[2,3-c]pyridine-3-carboxamide] | 1 to 20 µM |
| Cc1ncsc1COc1cc2c(C(=O)NC(C)C(N)=O)c(C)oc2cn1 (single isomer, unassigned) [Cpd 005-En1, 2-({2-methyl-5-[(4-methyl-1,3-thiazol-5-yl)methoxy]furo[2,3-c]pyridin-3-yl}formamido)propanamide] | 1 to 20 µM |
| Cc1oc2cnc(OCc3ccccc3F)cc2c1C(=O)NC1CCN(CCO)C1=O (single isomer, unassigned) [Cpd 017-En1, 5-[(2-fluorophenyl)methoxy]-N-[1-(2-hydroxyethyl)-2-oxopyrrolidin-3-yl]-2-methylfuro[2,3-c]pyridine-3-carboxamide] | 1 to 20 µM |
| Cc1oc2cnc(OCc3ccccc3F)cc2c1C(=O)NC(C)C(N)=O (single isomer, unassigned) [Cpd 009-En1, 2-({5-[(2-fluorophenyl)methoxy]-2-methylfuro[2,3-c]pyridin-3-yl}formamido)propanamide] | 1 to 20 µM |
| Cc1ncsc1COc1cc2c(C(=O)NC(CO)C(N)=O)c(C)oc2cn1 (single isomer, unassigned) [Cpd 013-En1, 3-hydroxy-2-({2-methyl-5-[(4-methyl-1,3-thiazol-5-yl)methoxy]furo[2,3-c]pyridin-3-yl}formamido)propanamide] | > 20 µM |

Now from value to compound:

| IC50 | SMILES |
| --- | --- |
| 1 to 20 µM | Cc1oc2cnc(OCc3ccccn3)cc2c1C(=O)NC1(C(N)=O)CCOCC1 [Cpd 024, N-(4-carbamoyloxan-4-yl)-2-methyl-5-[(pyridin-2-yl)methoxy]furo[2,3-c]pyridine-3-carboxamide] |
| > 20 µM | Cc1oc2cnc(OCc3ccccn3)cc2c1C(=O)NC1(CO)CC1 [Cpd 031, N-[1-(hydroxymethyl)cyclopropyl]-2-methyl-5-[(pyridin-2-yl)methoxy]furo[2,3-c]pyridine-3-carboxamide] |
| 1 to 20 µM | Cc1oc2cnc(OCc3ccccn3)cc2c1C(=O)NC1(C(N)=O)COC1 [Cpd 020, N-(3-carbamoyloxetan-3-yl)-2-methyl-5-[(pyridin-2-yl)methoxy]furo[2,3-c]pyridine-3-carboxamide] |
| < 1 µM | Cc1oc2cnc(OCc3cccnc3C(F)(F)F)cc2c1C(=O)N[C@@H]1CCNCC1(F)F [Cpd 025, N-[(4R)-3,3-difluoropiperidin-4-yl]-2-methyl-5-{[2-(trifluoromethyl)pyridin-3-yl]methoxy}furo[2,3-c]pyridine-3-carboxamide] |
| > 20 µM | Cc1oc2cnc(OCc3ccccn3)cc2c1C(=O)NC1(CO)COC1 [Cpd 034, N-[3-(hydroxymethyl)oxetan-3-yl]-2-methyl-5-[(pyridin-2-yl)methoxy]furo[2,3-c]pyridine-3-carboxamide] |
| 1 to 20 µM | Cc1ncsc1COc1cc2c(C(=O)NC3(CO)CCC3)c(C)oc2cn1 [Cpd 028, N-[1-(hydroxymethyl)cyclobutyl]-2-methyl-5-[(4-methyl-1,3-thiazol-5-yl)methoxy]furo[2,3-c]pyridine-3-carboxamide] |
| > 20 µM | COc1ncccc1COc1cc2c(C(=O)NC3(CO)CC3)c(C)oc2cn1 [Cpd 032, N-[1-(hydroxymethyl)cyclopropyl]-5-[(2-methoxypyridin-3-yl)methoxy]-2-methylfuro[2,3-c]pyridine-3-carboxamide] |
| > 20 µM | Cc1ncsc1COc1cc2c(C(=O)NC3(C(N)=O)COC3)c(C)oc2cn1 [Cpd 019, N-(3-carbamoyloxetan-3-yl)-2-methyl-5-[(4-methyl-1,3-thiazol-5-yl)methoxy]furo[2,3-c]pyridine-3-carboxamide] |
| > 20 µM | Cc1ncsc1COc1cc2c(C(=O)NC3(CO)CC3)c(C)oc2cn1 [Cpd 030, N-[1-(hydroxymethyl)cyclopropyl]-2-methyl-5-[(4-methyl-1,3-thiazol-5-yl)methoxy]furo[2,3-c]pyridine-3-carboxamide] |
| 1 to 20 µM | Cc1oc2cnc(OCCc3ccccc3)cc2c1C(=O)NC1CNCC1(F)F (stereo not shown) [Cpd 022-En1, N-(4,4-difluoropyrrolidin-3-yl)-2-methyl-5-(2-phenylethoxy)furo[2,3-c]pyridine-3-carboxamide] |
| < 1 µM | Cc1ncsc1COc1cc2c(C(=O)NC3CNCC3(F)F)c(C)oc2cn1 (single isomer, unassigned) [Cpd 021-En1, N-(4,4-difluoropyrrolidin-3-yl)-2-methyl-5-[(4-methyl-1,3-thiazol-5-yl)methoxy]furo[2,3-c]pyridine-3-carboxamide] |
| 1 to 20 µM | Cc1oc2cnc(OCc3cccnc3C(F)(F)F)cc2c1C(=O)N[C@H]1CCNCC1(F)F [Cpd 026, N-[(4S)-3,3-difluoropiperidin-4-yl]-2-methyl-5-{[2-(trifluoromethyl)pyridin-3-yl]methoxy}furo[2,3-c]pyridine-3-carboxamide] |
| 1 to 20 µM | Cc1ncsc1CCOc1cc2c(C(=O)NC3CNCC3(F)F)c(C)oc2cn1 (stereo not shown) [Cpd 023-En1, N-(4,4-difluoropyrrolidin-3-yl)-2-methyl-5-[2-(4-methyl-1,3-thiazol-5-yl)ethoxy]furo[2,3-c]pyridine-3-carboxamide] |
